Values belong to the molecule of their own block, whether it stands above or below them.
How the values were obtained:
[1] = test system: Collagenase (MMP-1); assay: Collagenase (MMP-1) production in human fibroblasts (ELISA); format: cell-based; details: extract 10 μg/ml, 24 hours; control = 100
Protocol: The collagenase production inhibitory ability of the paper mulberry extract prepared in Preparation Example 1 was measured in comparison with that of retinoic acid.
Human fibroblasts were added to a 96-well microtiter plate containing 2.5% fetal bovine serum-containing DMEM (Dulbecco's Modified Eagle's Media) at a density of 5,000 cells/well and were cultured in a 5% CO2 incubate at 37° C. to a confluence of about 70-80%. Then, the cell culture was treated with 10 μg/ml of the paper mulberry extract of Preparation Example 1 for 24 hours and collected.
The production of collagenase in the collected cell culture was measured using a commercially available collagenase measurement instrument (Catalog #: RPN 2610, Amersham Pharmacia, USA). […]
The absorbance of the yellowish 96-well plate at 405 nm was measured using a spectrophotometer, and based on the measurements, the degree of synthesis of collagenase was calculated using the following equation 1. Herein, the absorbance of a cell culture collected from a group not treated with the test sample was used as a control.
Collagenase expression(%)=(absorbance of cell group treated with material/absorbance of control)×100 Equation 1

[2] = molecular target: T1, 5α-reductase in HEK293-5αR2 cells (Homo sapiens, UniProt P31213); assay: Inhibition of 5α-reductase (testosterone to dihydrotestosterone conversion); format: cell-based; details: radioactivity in the DHT region/total radioactivity; extract 10 μg/ml, 2 hours
T1 construct: 3×FLAG; expressed in transfected cells; host or cells: HEK293
T1 sequence (P31213 1-254): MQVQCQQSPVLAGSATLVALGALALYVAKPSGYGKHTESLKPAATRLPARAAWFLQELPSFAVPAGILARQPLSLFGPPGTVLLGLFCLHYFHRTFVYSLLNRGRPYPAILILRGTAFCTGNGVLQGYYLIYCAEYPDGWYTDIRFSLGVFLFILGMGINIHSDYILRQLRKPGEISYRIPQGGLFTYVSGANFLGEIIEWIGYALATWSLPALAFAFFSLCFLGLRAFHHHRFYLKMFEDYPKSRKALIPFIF
Protocol: In order to examine the effect of inhibiting 5α-reductase activity, the ratio of [^14C]testosterone-to-[14^C]dihydrotestosteron conversion in HEK293-5αR2 cells was measured. HEK293 cells transfected with p3×FLAG-CMV-5αR2 were added to a 24-well plate at a density of 2.5×10^5 cells/well and cultured (Park et al., 2003, JDS. Vol. 31, ppl 91-98). The next day, the medium was replaced with fresh medium containing an enzyme substrate and an inhibitor. As the substrate of the medium, 0.05 μCi [^14C]testosterone (Amersham Pharmacia biotech, UK) was used. In order to measure the degree of inhibition, 10 μg/ml of the paper mulberry extract of Preparation Example 2 was added to the cells which were then incubated in a 5% CO2 incubator at 37° C. for 2 hours. As a positive control, finasteride was used. The culture medium was collected and, steroid was extracted with 800 μl of ethyl acetate. […]
The plastic sample was dried in air, and the amount of isotopes was measured using a Vas system. Specifically, the dried plastic sheet together with an X-ray film was placed in a Vas cassette, and after 1 week, the amounts of the testosterone and dihydrotestosterone isotopes were measured.

[3] = test system: differentiated 3T3-L1 adipocytes; assay: Stimulation of decomposition of triglyceride in adipocytes (GPO-trinder kit); format: cell-based, mouse; details: control = 100%; caffeine 50 μM
Protocol: Mouse fibroblast 3T3-L1 cells were seeded into a 6-well culture plate containing 10% fetal bovine serum (FBS)-containing DMEM (Dulbeco's modified eagle's medium, GIBCO BRL, Life Technologes) at a density of 1×10^5 cells/well. After 2 days, the medium was replaced with fresh DMEM (containing 10% FBS), followed by culture for 2 days. Then, the cultured cells were treated with DMEM (containing 10% FBS) containing 1 μg/ml insulin, 0.5 mM IBMX and 0.25 μM dexamethasone to induce differentiation, and after 2 days, the medium was replaced with insulin-containing DMEM, followed by incubation for 5 days. After 5 days, the medium was replaced with normal medium (DMEM containing 10% FBS), and the cells were incubated until the cells morphologically differentiated into adipocytes. In order to evaluate the effect of the paper mulberry extract on the stimulation of decomposition of triglyceride in adipocytes, a test was carried out using the differentiated […] adipocytes. The 3T3-L1 adipocytes were washed twice with PBS (phosphate buffered saline), and colorless DMEM containing 0.5% fatty acid-free bovine serum albumin (BSA) was added to the cells, and a fraction of the cells was taken and used in the test. As a control, a medium not treated with the test material or the positive control was used. […] (Sigma, St. Louis, Mo., U.S.A.), and the absorbance at 540 nm was measured using an ELISA reader.

[4] = test system: differentiated 3T3-L1 adipocytes; assay: Inhibition of lipogenesis (Sudan III staining of adipocytes); format: cell-based, mouse; parameters: key: expressed as +++, ++ and + depending on the degree of staining; expressed as +++, ++ and + depending on the degree of staining; expressed as +++, ++ and + depending on the degree of staining; details: Sudan III staining grade; positive control 50 μM caffeine
Protocol: Mouse fibroblast 3T3-L1 cells were seeded into a 6-well culture plate containing 10% fetal bovine serum (FBS)-containing DMEM (Dulbeco's modified eagle's medium (GIBCO BRL, Life Technologes) at a density of 1×10^5 cells/well. After 2 days, the medium was replaced with fresh DMEM (containing 10% FBS), followed by culture for 2 days. Then, the cultured cells were treated with DMEM (containing 10% FBS) containing 1 μg/ml insulin, 0.5 mM IBMX and 0.25 μM dexamethasone to induce differentiation, and after 2 days, the medium was replaced with insulin-containing DMEM, followed by incubation for 5 days. After 5 days, the medium was replaced with normal medium (DMEM containing 10% FBS), and the cells were incubated until the cells morphologically differentiated into adipocytes. In order to measure the effect of the paper mulberry extract on the inhibition of the accumulation of fat in adipocytes, the differentiated 3T3-L1 adipocytes were subjected to Sudan III staining ([…], Sigma-Aldrich). The adipocytes were fixed with 4% paraformaldehyde (pH 7.2) in phosphate buffer at room temperature, and then washed with PBS (phosphate buffered saline), after which the cells were stained with Sudan III and photographed for visual comparison. […] The degree of inhibition of fat accumulation was expressed as +++, ++ and + depending on the degree of staining.

[5] = test system: prostaglandin production in macrophages; assay: Inhibition of prostaglandin production in LPS-treated macrophages (ELISA); format: cell-based, mice; details: percentage relative to 100% for the difference between LPS-treated and non-LPS-treated group
Protocol: Anti-inflammatory effect was evaluated based on the inhibition of prostaglandin production. The anti-inflammatory effect of the paper mulberry extract of Preparation Example 1 was measured using macrophages. […] Then, 100 μl of the cell suspension was added to each well of a 96-well plate and cultured in a 5% CO2 incubator at 37° C. for 2 hours so that the macrophages were attached to the plate surface. Then, the attached macrophages were washed three times with PBS and used to test the effect of the extract. The cultured macrophages were added to 1%(w/v) LPS-containing RPMI medium at a concentration of 5×10^4 cells/ml and cultured for 12 hours to induce the production of prostaglandin, after which they were treated with 100 μl of the extract. Released prostaglandin was quantitatively analyzed by ELISA. Herein, the prostaglandin production inhibitory activity of the extract was expressed as the percentage of prostaglandin production in the group treated with LPS together with the sample relative to 100% for the difference in prostaglandin production between the LPS-treated group and the non-LPS-treated group.

[6] = molecular target: T2, elastase type III (Sus scrofa, UniProt P00772); assay: Inhibition of elastase activity; format: biochemical; details: elastase test; extract 10 mg/L, EGCG 250 μM; untreated negative control = 100
T2 construct: purchased Sigma Aldrich E0127
T2 sequence (P00772 27-266): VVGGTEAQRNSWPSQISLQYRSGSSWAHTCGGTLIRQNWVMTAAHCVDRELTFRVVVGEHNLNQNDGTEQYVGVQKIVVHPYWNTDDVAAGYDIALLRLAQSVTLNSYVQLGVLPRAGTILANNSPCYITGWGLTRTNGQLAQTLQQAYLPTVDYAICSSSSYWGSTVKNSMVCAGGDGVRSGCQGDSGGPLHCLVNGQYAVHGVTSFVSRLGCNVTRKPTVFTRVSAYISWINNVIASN
Protocol: The elastase inhibitory activity of the paper mulberry extract prepared in Preparation Example 1 was measured in comparison with that of EGCG. The elastase and substrate used were commercially purchased from Sigma Aldrich (Cat. No. E0127, USA). The elastase inhibitory activity was measured in the following manner. […] Then, 100 μL of 0.4514 mg/mL N-SUCCINYL-[…]-NITROANILIDE in the same buffer used above was added to the plate and allowed to react at 25° C. for 15 minutes. After completion of the reaction, the absorbance at 415 nm was measured. For correction, a blank test was carried out in the same manner. The elastase inhibitory activity was calculated using the following equation. Elastase activity inhibition(%)={1-(C-D)/(A-B)}×100 wherein A: absorbance at 415 nm in the case in which the test sample was not added and the enzyme was added; B: absorbance at 415 nm in the case in which the test sample was not added and the enzyme was not added; C: absorbance at 415 nm in the case in which the test sample was added and the enzyme was added; and D: absorbance at 415 nm in the case in which the test sample was added and the enzyme was not added.

[7] = test system: Leukoplakia mice (C57bl/6-Mitf^mi-vit); assay: Gray hair prevention and black hair induction in leukoplakia mice (melanin in hair); format: in vivo; details: topical twice a day, about 3 weeks; extract 2.5%, IBMX 50 mM in vehicle
Protocol: Leukoplakia mice (C57bl/6-Mitf^mi-vit) were purchased from The Jackson Lab (USA) and used. The effect of the paper mulberry extract on gray hair prevention in the mice was tested in the following manner. The back of 12-week-old mice was depilated such that the depilated area was the same between the mice. From the day following the depilation day, gray hair-preventing substances were applied to the depilated area twice a day. As a vehicle for the gray hair-preventing substance, a mixture of EtOH:1,3-BG:DW=3:2:5 (volume ratio) was used. […] After about 3 weeks, the difference in gray hair prevention effect between the materials has been distinguished, newly grown hairs were collected and the amount of melanin in the hairs was measured using esperase (Novozyme). […] The reaction solution thus obtained was added to a 96-well plate, and the absorbance at 405 nm was measured, thereby measuring the amount of melanin in the reaction solution. As described above, the leukoplakia mouse model in which the occurrence of gray hair was stimulated was treated with each of the negative control, the positive control and the test sample, and the effects of the negative control, the positive control and the test sample were measured visually and by measuring the amount of melanin in the hair.

[8] = test system: MITF expression in Melan-a melanocyte cell line MITF-GLuc; assay: Stimulation of MITF expression in transformed melanocytes (GLuc reporter); format: cell-based; details: 100 μM, 3 days
From the text: To examine the gray preventing effect of the paper mulberry extract, the effect of the paper mulberry extract on the stimulation of MITF expression was examined as disclosed in Korean Patent Application No. 10-2007-0072182 (entitled “A method for screening a gray hair-preventing substance using a transformed cell line and leukoplakia mice and a composition for preventing gray hair containing the gray hair-preventing substance”). The Melan-a melanocyte cell line MITF-GLuc (accession number: KCLRF-BP-00162) transformed with the expression vector pMITF-GLuc was cultured in RPMI 1640 medium containing 10% fetal bovine serum (FBS), 100 unit/ml penicillin-streptomycin (Gibco), 0.1 μM TPA (Sigma) and 400 μg/ml G418 under the conditions of 37° C. and 10% CO2. The positive control IBMX was purchased from Sigma and used at a concentration of 100 μM. […] After the incubation, to quantify the amount of GLuc, a small amount of the medium was taken, transferred to a measurement plate and allowed to react with a substrate. Specifically, a small amount of the medium was taken from the cell culture dish and transferred to a measurement plate, after which 1× GLuc assay working solution (NEB) was added to the medium at a ratio of 4:1, and the amount of light emitted at […] was measured using a luminometer.

Structure (SMILES): CC1=C(/C=C/C(C)=C/C=C/C(C)=C/C(=O)O)C(C)(C)CCC1 [Retinoic acid, retinoic acid]
Expression (%) (collagenase) [1]: 75 ± 3.4%

Conversion (%) [2]: 27.6%
Structure (SMILES): CC(C)(C)NC(=O)[C@H]1CC[C@H]2[C@@H]3CC[C@H]4NC(=O)C=C[C@]4(C)[C@H]3CC[C@]12C [finasteride]

Structure (SMILES): Cn1c(=O)c2c(ncn2C)n(C)c1=O [Caffeine, caffeine]
Level of released glycerol [3]: 115%
Inhibition (%) [4]: +

Structure (SMILES): CC(=O)Oc1ccccc1C(=O)O [aspirin]
Prostaglandin production (inhibitory effect on prostaglandin production) [5]: 25.0%

Expression (%) [6]: 90 ± 1.2%
Structure (SMILES): O=C(O[C@@H]1Cc2c(O)cc(O)cc2O[C@@H]1c1cc(O)c(O)c(O)c1)c1cc(O)c(O)c(O)c1 [EGCG]

Structure (SMILES): CC(C)Cn1c(=O)n(C)c(=O)c2[nH]cnc21 [IBMX]
Ratio (%) of amount of melanin in hair relative to negative control [7]: 105.9%
Percentage (%) of gluciferase production relative to negative control [8]: 180%

Source: patent US20140356468A1, “COMPOSITION CONTAINING PAPER MULBERRY EXTRACTS” (AMOREPACIFIC CORPORATION, priority 2010, published 2014)
